This note sets out measurements from PubChem BioAssay (NCI).

What all share (test): growth of human tumour cells (NCI), 48 h
Assay [1] has as its system 786-0 renal.
The subject of assay [2] is HCT-15 colon.
Assay [3] has as its system HOP-18 NSCLC.
Assay [4] concerns KM20L2 colon.
The test system of assay [5] is OVCAR-5 ovarian.
The test system of assay [6] is SNB-19 CNS.
The subject of assay [7] is SN12C renal.
Assay [8] relates to BT-549 breast.
Assay [9] has as its system MCF7 breast.
Assay [10] concerns NCI/ADR-RES ovarian.

The structures appear in SMILES notation.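 Briefly, cells in 96-well plates were exposed to five compound concentrations for 48 h, and endpoints were estimated by linear interpolation. GI50: concentration for 50% inhibition of growth. TGI is the concentration that stops growth completely.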

Consider `Cn1c(=O)c(N=Nc2c(=O)n(C)c(=O)n3c2[nH]c2ccccc23)c2[nH]c3ccccc3n2c1=O`, for which the TGI was more than 100 µM in [1]; more than 100 µM in assay [2]; more than 100 µM in assay [3]; more than 100 µM in assay [4]; more than 100 µM in assay [5]; 61.1 µM in [6].
As for `Cc1c(/C=N/NC(=O)c2ccccc2O)c(=O)n(-c2ccccc2)n1C`, the TGI in assay [1], in assay [2], in assay [3], in [4], in assay [7] and in assay [6] was more than 100 µM each time.
`Nc1ncn([C@@H]2S[C@H](CO)[C@@H](O)[C@@H]2F)c(=O)n1`: the GI50 in assay [1] is 0.337 µM; in assay [8], 54.7 µM; in [2], 2.7 µM; in assay [9], 0.279 µM; in assay [10], 0.285 µM; in assay [5], 2.64 µM. Moreover, the GI50 in [7] was 0.364 µM; in assay [6] it was 0.662 µM. Also, the TGI in assay [1], in assay [8], in assay [2], in assay [9], in assay [10] and in assay [5] was more than 100 µM each time. Moreover, the TGI in [7] and in assay [6] was more than 100 µM throughout.
For `Clc1ccc(-c2cn3ccnc3c(-c3ccc(Cl)cc3)n2)cc1`, the GI50 was 29.5 µM in assay [1]; 46 µM in [8]; 3.38 µM in assay [2]; 11.4 µM in assay [9]; 11.2 µM in [10]; 32.9 µM in assay [5]. For the same compound, the values for the GI50 in assay [7] and in assay [6] were 16.7 µM and 45.8 µM, respectively. In addition, the TGI in assay [1] was more than 100 µM; in [8], more than 100 µM; in [2] it was 30.9 µM; in assay [9], more than 100 µM; in assay [10], 47.5 µM; in assay [5], more than 100 µM. In addition, the TGI in assay [7] is 95.1 µM; in assay [6], more than 100 µM.
Consider `CC(=O)OCc1c2ccccc2c(C)c2c1cc(F)c1ccccc12`, for which the TGI is 82.3 µM in [1]; more than 100 µM in assay [3]; 87 µM in assay [4]; more than 100 µM in [5]; 33.8 µM in [7]; 82.4 µM in assay [6].
Turning to `O=C(COc1ccccc1Cl)N1N=C(c2ccc(Cl)cc2)CC1(O)c1ccccc1` (centres undefined), the TGI in assay [1], in assay [2], in assay [4], in assay [5], in [7] and in [6] was more than 100 µM throughout.
With `N#CC(C#N)=C/C=C(\Cl)c1ccc(Cl)cc1`, the GI50 was 4.56 µM in [1]; 8.32 µM in [8]; 4.5 µM in assay [2]; 14 µM in [9]; 4.57 µM in assay [10]; 8.78 µM in assay [5]. Besides, the GI50 in [7] was 4.52 µM; in [6] it was 18.5 µM. Besides, the TGI in [1] was 15.7 µM; in assay [8], 22 µM; in [2], more than 42.2 µM; in assay [9] it was more than 100 µM; in assay [10], 16.2 µM; in [5], 24.5 µM. Besides, the TGI is 26.7 µM in assay [7] and more than 55.2 µM in assay [6].
For `CC1=C([Se]CC(OC(=O)CC[Se]c2ccccc2)C(=O)NC(C)(C)C)C(=O)c2ccccc2C1=O` (centres undefined), the GI50 in assay [1] was 1.83 µM; in assay [8], 1.64 µM; in assay [2], 2.47 µM; in [9] it was 1.69 µM; in assay [10], 1.63 µM; in assay [5], 1.75 µM. Besides, the results for the GI50 in assay [7] and in assay [6] were 1.67 µM and 0.638 µM, respectively. The TGI in assay [1] came out at 3.23 µM; in assay [8], 3.15 µM; in assay [2], 5.86 µM; in assay [9] it was 3.73 µM; in [10] it was 3.18 µM; in assay [5] it was 3.18 µM. In addition, the results for the TGI in assay [7] and in assay [6] were 3.13 µM and 2.05 µM, respectively.
Consider `CN(C)c1cc2ccccc2oc1=O`, for which the TGI in [1], in assay [8], in assay [2], in assay [9], in assay [10] and in [5] was more than 100 µM throughout. Besides, the TGI in assay [7] and in [6] was more than 100 µM in each case.
Take `O=C(c1ccc2ccccc2c1)c1c(C(F)(F)F)n([O-])c2ccc(C(F)(F)F)cc2[n+]1=O`: the GI50 in assay [1] is 1.29 µM; in assay [8] it was 0.278 µM; in assay [2] it was 0.732 µM; in assay [9] it was 0.392 µM; in assay [10], 1.7 µM; in assay [5] it was 0.992 µM. In addition, the GI50 in assay [7] is 1.39 µM; in assay [6], 1.76 µM. In addition, the TGI in [1] came to 2.68 µM; in assay [8], 0.751 µM; in assay [2], 2.07 µM; in assay [9], 1.56 µM; in assay [10] it was 4.75 µM; in assay [5], 4.2 µM. The TGI in [7] was 3.3 µM; in assay [6], 3.2 µM.
Turning to `O=C1/C(=C/c2ccc([N+](=O)[O-])cc2)CN(C(=O)CCN2CCC(=NO)CC2)C/C1=C\c1ccc([N+](=O)[O-])cc1`, the GI50 in assay [1] is 1.06 µM; in assay [8], 1.71 µM; in assay [2], 0.771 µM; in assay [9], 0.431 µM; in assay [10], 1.49 µM; in assay [5], 1.57 µM. The figures for the GI50 in assay [7] and in assay [6] were 0.677 µM and 1.08 µM, respectively. Moreover, the TGI in [1] stood at 3.66 µM; in assay [8], 4.32 µM; in assay [2], 3.9 µM; in [9], 2.87 µM; in assay [10], 17.8 µM; in assay [5], 3.97 µM. In addition, the TGI in [7] worked out at 2.51 µM; in assay [6], 5.13 µM.
Regarding `Cn1ccnc1CCc1c(Cl)cccc1Cl`, the TGI in [1], in assay [2], in [3], in [4], in assay [5] and in assay [7] was more than 100 µM throughout.
